Reference: patent publication US20200068887A1, “TREATMENT FOR REMOVING ECTOPARASITES FROM FISH” (priority 2016, published 2020)
“And” between values parts separate entries of the source, which are not always exact repeats. Equal entries are not always repeated.

Columns and labels:
Lepeophtheirus salmonis = experiment: Sea lice recovery in clean seawater after exposure; format: in vivo; conditions: any concentration (10-25 mg/l), post-exposure period up to 6 hours
Method: Imidacloprid exposed parasites from both the relative efficacy and rate determination studies (both those removed manually from their host post-treatment and those that detached during treatment) were immersed into clean seawater and observed for signs of recovery.
At the time of the first observation, exposed individuals were determined to be either dead or still active. Of those still active, muscular excitation was uncoordinated, uncontrolled and limited.

sea lice = experiment: Comparison on isolated sea lice (in vitro bath exposure); conditions: 60 min exposure; for % effect / Immobilised / Live: registered approx. 20 h after end of exposure
Method: Both pre-adult and adult stages (mobile stages) of both sexes were used, and they were equally distributed among groups. The sea lice were exposed to imidacloprid for 60 minutes, azamethiphos for 60 minutes and deltamethrin for 30 minutes in one litre baths at a range of concentrations (Tables 6, 7 and 8). The sea lice were transferred to clean aerated seawater after treatment. The temperature of the seawater during the experiment was 12° C., but during exposure the temperature raised to approx. 14° C. in regimes exposed for 60 min. (imidacloprid and azamethiphos) and to 13° C. for the regime exposed in 30 minutes (deltamethrin).
The numbers of live and immobilised (including killed) lice in each regime were registered approximately 20 h after end of exposure. Each louse was individually investigated.

[1] = isolated sea lice, immobilisation approx. 20 h after exposure

O=[N+]([O-])NC1=NCCN1Cc1ccc(Cl)nc1 [imidacloprid]
functional recovery of exposed parasites in clean seawater (Lepeophtheirus salmonis): no clear signs of functional recovery | % effect (sea lice; imidacloprid 5 ppm): 30% | Immobilised (sea lice; imidacloprid 5 ppm): 3 | Live (sea lice; imidacloprid 5 ppm): 7 | % effect (sea lice; imidacloprid 10 ppm): 40% and 50% | Immobilised (sea lice; imidacloprid 10 ppm): 4 and 5 | Live (sea lice; imidacloprid 10 ppm): 6 and 5 | % effect (sea lice; imidacloprid 15 ppm): 100% | Immobilised (sea lice; imidacloprid 15 ppm): 10 | Live (sea lice; imidacloprid 15 ppm): 0 | % effect (sea lice; imidacloprid 20 ppm): 100% | Immobilised (sea lice; imidacloprid 20 ppm): 10 | Live (sea lice; imidacloprid 20 ppm): 0 | % effect (sea lice; imidacloprid 30 ppm): 100% | Immobilised (sea lice; imidacloprid 30 ppm): 10 | Live (sea lice; imidacloprid 30 ppm): 0 | estimated EC90 value (sea lice; [1]): 14.4 ppm | estimated ECso value (sea lice; [1]): 7.6 ppm
